We go through nine molecules from ChEMBL document CHEMBL1201862, “PubChem BioAssay data set” (2004).

A short description of experiment [1]: Shn3 3'UTR reporter inhibitors, dose response, cell-based, Clone20 osteoblasts, firefly luciferase, cherry-picked (AID 624132).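 Also: firefly luciferase luminescence from reporter carrying the Shn3 3'UTR in osteoblasts.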 In kind it is functional.
Experiment [2] can be described thus: HepG2 cell cytotoxicity, dose response, cytotoxicity control for Shn3 inhibitor project, CellTiter-Glo, cherry-picked (AID 624134). In kind it is functional, cell-based.
Experiment [3] in a line: reduction of Shn3 3'UTR firefly luciferase signal, dose response, Schnurri-3 inhibitor project, cell-based, Clone20 osteoblasts, cherry-pick, set 2 (AID 720490).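 Also: actives lower the luminescence signal as inhibitors.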 Format: functional.
Experiment [4] can be described thus: control 3'UTR Renilla luciferase suppression, dose response, counter-screen for Shn3 inhibitor project, cell-based, Clone20-Shn3RL, cherry-picked (AID 624133). In kind it is functional. (A counterscreen serves to expose hits that act by an unwanted route or on another target.)
The target in experiment [5] is fMet-Leu-Phe receptor (Homo sapiens, UniProt P21462). Briefly: FPR ligands, dose response (AID 519). Format: functional.
Experiment [6] has as its target Kallikrein-7 (Homo sapiens, UniProt P49862). The experiment can be described thus: Fluorescence Intensity-based biochemical primary high throughput dose response assay to identify activators of kallikrein-7 (K7) zymogen.
Experiment [7] deals with Luciferin 4-monooxygenase (Photinus pyralis, UniProt P08659). The experiment can be described thus: firefly luciferase enzyme inhibitors, dose response, biochemical, luminescence (AID 1891).
Experiment [8] in a line: Luminescence Cell-Based Dose Confirmation HTS to Identify Inhibitors of Platelet Dense Granule Release. [Related pubchem assays: 1663 (Primary HTS), 1678 (Summary of Project)]. Format: functional.
For experiment [9], the target named is NAD-dependent protein deacylase sirtuin-5, mitochondrial (Homo sapiens, UniProt Q9NXA8). The experiment can be described thus: SIRT5 desuccinylase inhibitors, dose response, biochemical, fluorescence imaging, cherry-pick, set 5 (AID 720591).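 Also: desuccinylation of succinyl peptide AMC substrate read as fluorescence after trypsin release; potency of inhibitors that lower fluorescence and may act on trypsin instead.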
The nature of experiment [10]: cells.
In experiment [11] the test system is HEK293. Briefly: inhibitors of LMP1-driven NF-kB reporter, dose response, cell-based, HEK293, luciferase, cherry-pick (AID 588343). Particulars: Homo sapiens. Format: functional.
Experiment [12] has as its target Oxysterols receptor LXR-beta (Homo sapiens, UniProt P55055). In kind it is functional, cell-based.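 Also: Cell-based luminescence dose-response assay of agonist activity at LXR, run as a confirmatory counterscreen to a daf-12 agonist screen; HEK293 cells with Gal4-LXR fusion and GAL4-driven luciferase reporter; agonist potency from rising luciferase signal of a Gal4-LXR reporter.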
Experiment [13] concerns Streptococcus. The experiment can be described thus: Group A Streptococcus viability loss, dose response, counter-screen for streptokinase expression inhibitor project, luminescence, BacTiterGlo (AID 1915).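 Also: potency for reduction of bacterial viability or growth.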 In kind it is functional, organism-based.
The nature of experiment [14]: HEp-2 cell cytotoxicity, dose response, cytotoxicity control for RSV inhibitor project, HTS (AID 2410). The following applies: human respiratory syncytial virus. In kind it is functional.
Experiment [15] has as its system Streptococcus sp. 'group A'. Briefly: growth inhibition of control SK(-) GAS strain, dose response, counter-screen for streptokinase expression inhibitor project, luminescence, kanamycin, BacTiterGlo, confirmation (AID 1900). In kind it is functional, organism-based.
The target in experiment [16] is T1, Streptokinase A (Streptococcus pyogenes serotype M1, UniProt P10520).
T1 sequence (P10520 whole entry): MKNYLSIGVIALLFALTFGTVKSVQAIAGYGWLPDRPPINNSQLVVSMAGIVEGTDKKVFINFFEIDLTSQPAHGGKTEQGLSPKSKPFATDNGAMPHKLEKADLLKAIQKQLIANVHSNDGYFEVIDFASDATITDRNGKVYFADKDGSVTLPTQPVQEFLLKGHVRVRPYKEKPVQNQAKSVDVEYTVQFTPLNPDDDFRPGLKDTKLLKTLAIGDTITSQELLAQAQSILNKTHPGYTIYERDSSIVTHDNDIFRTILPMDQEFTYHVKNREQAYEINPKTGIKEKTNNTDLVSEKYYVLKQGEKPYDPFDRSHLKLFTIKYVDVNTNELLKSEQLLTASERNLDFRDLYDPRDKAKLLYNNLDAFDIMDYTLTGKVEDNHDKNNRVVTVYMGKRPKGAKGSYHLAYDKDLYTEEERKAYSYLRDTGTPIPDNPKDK
Briefly: S. pyogenes streptokinase expression inhibitors, potency, dose response, plasminogen activation absorbance, OD405 (AID 1914).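 Also: secreted streptokinase activity via plasminogen activation per viability signal from cell pellet.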 In kind it is functional, Streptococcus pyogenes M1 GAS.

Experiment [17] addresses Major prion protein (Homo sapiens, UniProt P04156). In kind it is functional, cell-based.
Experiment [18] can be described thus: cells. The source holds these as a separate data set.
The nature of experiment [19]: Luminescence Cell-Based Dose Retest to Confirm Inhibitors of Cancer Stem Cells. [Related pubchem assays (depositor defined):AID2717, AID2721]. Format: functional. The following applies: Homo sapiens.
Experiment [20] has as its target T2, Heat shock factor protein 1 (Mus musculus, UniProt P38532).
T2 sequence (P38532 whole entry): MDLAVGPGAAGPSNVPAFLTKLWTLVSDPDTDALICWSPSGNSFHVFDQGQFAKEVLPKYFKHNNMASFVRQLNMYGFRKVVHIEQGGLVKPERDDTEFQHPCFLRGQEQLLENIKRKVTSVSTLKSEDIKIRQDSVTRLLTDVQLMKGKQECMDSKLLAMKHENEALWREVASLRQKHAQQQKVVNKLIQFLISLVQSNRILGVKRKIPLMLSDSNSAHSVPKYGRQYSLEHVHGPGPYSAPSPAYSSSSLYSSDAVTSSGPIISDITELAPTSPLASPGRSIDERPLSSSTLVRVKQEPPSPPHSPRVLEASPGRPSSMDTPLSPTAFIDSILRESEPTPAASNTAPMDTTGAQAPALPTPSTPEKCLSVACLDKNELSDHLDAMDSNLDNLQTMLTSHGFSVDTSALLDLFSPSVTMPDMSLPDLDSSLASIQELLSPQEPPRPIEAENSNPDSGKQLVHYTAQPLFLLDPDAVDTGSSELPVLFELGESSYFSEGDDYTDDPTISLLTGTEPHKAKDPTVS
Briefly: inhibition of MG132-induced HSE-luciferase signal, confirmation, cell-based, NIH3T3, luminescence, dose retest (AID 2382).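 Also: NIH3T3 fibroblasts with HSF1-driven luciferase reporter stressed by proteasome inhibitor MG132; luminescence from HSF1-driven luciferase expression after 8 hours of MG132 stress.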 Format: functional.

Experiment [21] in a line: Luminescent dose response cell-based high throughput screening assay for inhibitors of the Janus kinase 2 mutant JAK2V617F. [Related pubchem assays: 1446 (Primary screen.), 1521 (Confirmation assay.), 1486 (Counter screen.)]. Format: functional.
Experiment [22] can be described thus: inhibitors of intracellular T. cruzi replication, confirmation, NIH3T3 host cells, beta-gal luminescence (AID 2044).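 Also: intracellular parasites grown in NIH/3T3 mouse fibroblasts as host cells; luminescent beta-galactosidase reporter signal from transgenic T. cruzi replicating inside host cells; inhibitors lower the luminescence signal.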 Format: functional, cell-based.
Experiment [23] can be described thus: cytotoxicity toward NIH3T3 fibroblasts, dose response, counter-screen, cell-based, ATP luminescence, mouse fibroblasts (AID 2010).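 Also: cells exposed to compound for about 90 hours before reading.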 Format: functional.
Experiment [24] addresses Cytochrome P450 2C19 (Homo sapiens, UniProt P33261). The experiment can be described thus: Cytochrome panel assay with activity outcomes. Panel member name: p450-cyp2c19 Compounds with AC50 equal or less than 10 uM are considered active. In kind it is functional. The following applies: read-out: AC50.
Experiment [25] deals with T3, Cytochrome P450 1A2 (Homo sapiens, UniProt P05177).
T3 sequence (P05177 whole entry): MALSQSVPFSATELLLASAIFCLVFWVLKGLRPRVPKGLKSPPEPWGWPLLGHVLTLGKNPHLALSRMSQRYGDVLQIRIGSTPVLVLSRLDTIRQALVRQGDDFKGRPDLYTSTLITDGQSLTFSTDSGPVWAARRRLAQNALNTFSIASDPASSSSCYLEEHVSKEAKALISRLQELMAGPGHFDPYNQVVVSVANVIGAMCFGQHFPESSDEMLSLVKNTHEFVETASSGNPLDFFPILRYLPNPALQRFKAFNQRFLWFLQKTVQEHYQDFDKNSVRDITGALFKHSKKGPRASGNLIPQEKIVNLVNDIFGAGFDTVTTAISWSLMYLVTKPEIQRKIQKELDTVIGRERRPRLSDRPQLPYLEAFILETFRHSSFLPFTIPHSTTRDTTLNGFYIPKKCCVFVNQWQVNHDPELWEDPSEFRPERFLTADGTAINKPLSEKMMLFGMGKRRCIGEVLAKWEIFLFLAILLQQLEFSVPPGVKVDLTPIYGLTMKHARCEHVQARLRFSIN

Calls of active or inactive are those of the source.

Take `O=C(Nc1ccc(Cl)cc1)c1cc(S(=O)(=O)N2CCOCC2)cs1`: the half-maximal activity concentration (AC50) (commonly the concentration giving half of the maximal activity seen) was 4.23 µM (active) in experiment [1], 46.9 µM (active) in experiment [2], 4.83 µM (active) in experiment [3] and 14.7 µM (active) in [4].
With `COc1ccccc1NC(=O)CSc1nnc(Cn2nnc(-c3ccccc3)n2)n1-c1ccccc1`, the Ki (usually the equilibrium dissociation constant of an inhibitor or competing ligand from its target) in experiment [5] was > 66.7 µM (inactive).
`CN1CCSc2ccc(C(=O)NCc3ccccc3F)cc21`: the EC50 (commonly the midpoint of the concentration-response curve) in experiment [6] is > 23.2 µM (inactive); in experiment [7], > 112 µM (not active); in [8], > 112 µM (not active).
In the case of `COC(=O)C1=CN(CC2CCCO2)C=C(C(=O)OC)C1c1ccsc1` (centres undefined), in experiment [6], the EC50 was > 69.5 µM (inactive).
Take `Cc1ccc(SCc2cn3ccccc3n2)cc1`: the AC50 in experiment [9] was > 30 µM (inactive).
`c1ccc(-c2nnc(-c3ccccn3)s2)nc1`: the EC50 in [10] and in [12] was > 67.5 µM (inactive) in each case. In [11], the AC50 was 4.63 µM (active).
Turning to `OC(COc1ccc2ccccc2c1Br)Cn1cnc(-c2ccccc2)c1` (centres undefined), the EC50 in experiment [13] was 21.7 µM (active); in experiment [15], 6.29 µM (active); in experiment [16], 9.22 µM (active); in [20] it was > 195 µM (not active). Besides, the half-maximal cytotoxic concentration (CC50) (commonly the concentration that lowers cell viability or growth by half) in [14] is 9.42 µM (active). Moreover, the results for the 50% inhibitory concentration (IC50) in [17] and in [18] were 4.17 µM (active) and > 138 µM (inactive), respectively. For the same molecule, the AC50 in [19] was 5.02 µM (active).
On to `COc1ccc(N2CCc3c(C)nc4c(OC)cc(OC)cc4c32)c(OC)c1`, for which, in [21], the IC50 (commonly the concentration at which inhibition is half-maximal) was 1.87 µM (active). Further, the figures for the concentration giving a half-maximal response (EC50) in experiment [22] and in experiment [23] were 0.839 µM (active) and > 60 µM (not active), respectively. Besides, the AC50 in [24] is 28.2 µM (inconclusive); in [25] it was 22.4 µM (inconclusive).
For `O=C(Nc1nc(-c2ccccc2)cs1)C1CCCCN1S(=O)(=O)c1ccccc1` (centres undefined), the AC50 is 5.14 µM (active) in experiment [1], 58 µM (active) in experiment [2] and 5.89 µM (active) in experiment [3].
